Data: PubChem BioAssay AID463206 (Broad Institute, 2010)
Calls of active or inactive are those of the source.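 Rule for the calls: active = caspase luminescence falls with dose and the half-maximal concentration AC50 from the fitted curve is at or below a set limit; inconclusive = flat fit at 30 to 70% signal loss, or invalid fit; inactive = AC50 above the limit, or signal rises instead.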

What follows are molecules tested on INS-1E cytokine-induced caspase-3/7, Caspase-Glo luminescence, 48 h (assay: inhibitors of cytokine-induced caspase-3/7 activity, dose response, orthogonal assay for beta-cell apoptosis protection project, INS-1E rat cells, luminescence (AID 463206)).

Structure (SMILES) | AC50
C=CCn1nc([N+](=O)[O-])nc1Sc1cccc2cccnc12 | > 26 µM (inactive)
O=C(COc1ccc(Br)cc1)N1CCN(Cc2c[nH]c3ccccc23)CC1 | > 26 µM (inactive)
Cc1cccc(NC(=O)Nc2cccc(Oc3c(F)c(F)c(F)c(F)c3F)c2)c1 | > 26 µM (inactive)
O=C(N/N=C/c1cc(Cl)ccc1O)c1cccnc1 | > 26 µM (inactive)
NC(N)=NC(N)=Nc1ccc(SC(F)(F)F)cc1 | > 26 µM (inactive)
NC(=O)c1c(-c2ccc(Cl)cc2Cl)csc1NC(=O)Cc1ccccc1 | > 26 µM (inactive)
c1ccc(N2CCN(CC3CCCCC3)CC2)cc1 | > 26 µM (inactive)
O=C(N/N=C/c1cc(Br)ccc1O)C(=O)Nc1ccccc1OC(F)(F)C(F)F | > 26 µM (inactive)
c1ccc(-c2cc(-c3ccccc3)[n+](-c3ccccc3)c(-c3ccccc3)c2)cc1 | > 26 µM (inactive)
Cc1cc(Cl)c(S(=O)(=O)N2CCN(c3ccc(F)cc3)CC2)cc1OCC(=O)NC1CCCCC1 | > 26 µM (inactive)
Cc1cc(-n2c(SCC(=O)Nc3ccc(F)c(F)c3)nc3n[nH]c(C)c3c2=N)ccc1Cl | > 26 µM (inactive)
O=C(N/N=C/c1cccnc1)c1ccccc1NS(=O)(=O)c1cccs1 | > 26 µM (inactive)
Cc1csc2nc(NC(=O)c3ccccc3)sc(=O)c12 | > 26 µM (inactive)
O=C(NNc1c(Cl)cc(Cl)cc1Cl)c1cccc([N+](=O)[O-])c1 | > 26 µM (inactive)
CC(=O)c1cccc(NS(=O)(=O)c2ccc(N/C=C\C(=O)c3ccc(F)cc3)cc2)c1 | > 26 µM (inactive)
CN1/C(=C\C(=O)COC(=O)c2ccc(O)c(O)c2)C(C)(C)c2ccccc21 | > 26 µM (inactive)
O=c1[nH]c(=O)n(-c2ccc(F)cc2)c2c1C(C(F)(F)F)(C(F)(F)F)N=C(c1ccc(F)cc1)N2 | > 26 µM (inactive)
FC(F)(F)c1nnc(-c2ccccc2)nc1Sc1ccc(Cl)cc1 | > 26 µM (inactive)
CCCCCCCCCCCCCCCC[n+]1cccc(C(=O)N(CC)CC)c1 | > 26 µM (inactive)
CCCCCCCCCCOC(=O)Cn1c(COc2ccccc2C)[n+](C)c2ccccc21 | > 26 µM (inactive)
COc1ncnc(OC)c1S(=O)(=O)Nc1ccc(C(F)(F)F)cc1 | > 26 µM (inactive)
Cc1cc(C(=O)NC2CCCc3c2cnn3-c2ccc(C)c(C)c2)n(C)n1 (centres undefined) | > 26 µM (inactive)
COc1ccc(/C=N/N2CCN(Cc3ccccc3)CC2)cc1 | > 26 µM (inactive)
O=C1N/C(=N\N=C\c2cccnc2)SC1Cc1ccc(SC(F)F)cc1 (centres undefined) | > 26 µM (inactive)

Structure (SMILES) | AC50
O=C(Nc1cc(Sc2ccccn2)cc([N+](=O)[O-])c1)c1ccc(Cl)cc1 | > 26 µM (inactive)
C#CCOCCOCCOCCNc1nc(N2CCN(C(=O)CCCCCCCCCCNC(=O)[C@H]([C@@H](C)CC)n3cc(CCCCCN)nn3)CC2)nc(N2CCN(C(=O)CCCCCCCCCCNC(=O)[C@H]([C@@H](C)CC)n3cc(CCCCN=C(N)N)nn3)CC2)n1 | > 26 µM (inactive)
O=C(N/N=C/c1ccc([N+](=O)[O-])o1)c1cc2ccccc2o1 | > 26 µM (inactive)
CCOC(=O)c1ccc(NC(=O)Cn2cnc3cc(C)c(C)cc32)cc1 | > 26 µM (inactive)
Cc1ccc(/C=C/C(=O)c2ccc([N+](=O)[O-])o2)cc1 | > 26 µM (inactive)
Cc1[nH]c2c(ccc3ccccc32)c1C1C(CCN)C1(C)C (centres undefined) | > 26 µM (inactive)
CN1CCN(C2=C(NS(=O)(=O)c3cccs3)C(=O)c3ccccc3C2=O)CC1 | > 26 µM (inactive)
Cc1nn(-c2ccccc2)c(C)c1NC(=O)COc1ccc(Br)cc1Cl | > 26 µM (inactive)
Cc1ccc2[nH]cc(/C=C/c3cc[n+](C)cc3)c2c1 | > 26 µM (inactive)
Cc1ccc(F)c([C@H]2C3C=CCC(c4ccccc4)C3C(=O)N2Cc2ccccc2)c1 (some centres undefined) | > 26 µM (inactive)
CCN1CCN(c2ccc(S(=O)(=O)N3CCCCC3)cc2NC(=O)c2ccc([N+](=O)[O-])s2)CC1 | > 26 µM (inactive)
COCC1CCCCN1C(=O)c1cc(COc2ccc3ncccc3c2)on1 (centres undefined) | > 26 µM (inactive)
CCc1ccc(C2=NNC(=Nc3cccc(S(=O)(=O)N(C)C)c3)SC2)cc1 | > 26 µM (inactive)
Cc1cc(C)n(-c2nc(NCCN(C)C)c3c4c(sc3n2)CCCC4)n1 | 13.1 µM
O=C(CSC1c2ccccc2-c2ccccc21)N/N=C/c1ccccc1O | > 26 µM (inactive)
Cc1ccc(N2C(=O)NC(=O)/C(=C\C=C\c3ccco3)C2=O)cc1C | > 26 µM (inactive)
Oc1c(Br)cc(Br)cc1/C=N/NC(=S)N[C@H]1CC2C=CC1C2 (some centres undefined) | > 26 µM (inactive)
Cc1nc(C)c(C(=O)N/N=C/c2cc(Br)ccc2O)s1 | > 26 µM (inactive)
CCc1ccc(-n2c(C)cc(/C=N/NC(=O)c3ccncc3)c2C)cc1 | > 26 µM (inactive)
CCOC(=O)c1c(C)oc2c1C(=O)c1ccccc1C2=O | > 26 µM (inactive)
COc1cc(/C=C(/C(=O)c2cccs2)c2nc3ccccc3[nH]2)ccc1O | > 26 µM (inactive)
O=C(CN1C(=O)c2ccccc2S1(=O)=O)c1ccc(F)cc1 | > 26 µM (inactive)
COc1cccc(/C=N/Nc2cc(C)nc(-c3ccccc3O)n2)c1O | > 26 µM (inactive)
CCn1c(=O)c([N+](=O)[O-])c(Cl)c2ccccc21 | > 26 µM (inactive)

Structure (SMILES) | AC50
CCN1/C(=C/c2ccc3cc(C)ccc3[n+]2CC)Sc2ccc3sccc3c21 | > 26 µM (inactive)
Cc1ccc2c(c1)S/C(=C/c1ccc[n+](C)c1)N2CCO | > 26 µM (inactive)
C=CCSc1nsc(NC(=O)Nc2ccc(F)cc2)n1 | > 26 µM (inactive)
CCC(O)C1CCN(C(=O)c2cc(COc3ccc4ncccc4c3)on2)CC1 (centres undefined) | > 26 µM (inactive)
CCOc1ccccc1NC(=O)c1nc(S(=O)(=O)Cc2cccc(C)c2)ncc1Cl | > 26 µM (inactive)
COc1ccc2nc(C)cc(N/N=C/c3ccc(F)cc3)c2c1 | > 26 µM (inactive)
CC(=O)N(C)C1=C(N2CCOCC2)C(=O)c2ccccc2C1=O | > 26 µM (inactive)
COc1ccccc1C(NC(C)=O)c1cc(Cl)c2cccnc2c1O (centres undefined) | > 26 µM (inactive)
Cc1nnsc1C(=O)N/N=C/c1ccc2ccccc2c1O | > 26 µM (inactive)
COc1ccc(-c2cc(-c3ccccc3)[n+](C)c(-c3ccccc3)c2)cc1 | > 26 µM (inactive)
N#C/C(=C/c1ccc(N2CCCCCC2)o1)c1ccc(Cl)cc1 | > 26 µM (inactive)
O=C(N/N=C/c1ccccc1O)C1CC(=O)N(c2ccc(Cl)cc2)C1 (centres undefined) | > 26 µM (inactive)
Cc1cc(C)n(-c2nc(NC(C)(C)C)nc(NC(C)(C)C)n2)n1 | > 26 µM (inactive)
CCCOc1ccc(CSc2nc3ccccc3[nH]2)cc1 | > 26 µM (inactive)
CCCCCCC(=O)N1C/C=C\C(c2ccc(OC)cc2)N(Cc2ccc(F)cc2)C(=O)[C@H]1Cc1ccccc1 (some centres undefined) | > 26 µM (inactive)
CC(C)OCCCNc1ncnc2c1[nH]c1ccc(F)cc12 | > 26 µM (inactive)
O=C(NNC(=O)c1ccccc1O)c1ccc(Cl)c(S(=O)(=O)N2CCc3ccccc32)c1 | 27.2 µM
CC(=O)SC1CC(=O)N(c2c(C)cccc2C)C1=O (centres undefined) | > 26 µM (inactive)
NC(=O)c1ccc(N2CCN(S(=O)(=O)c3cccs3)CC2)c([N+](=O)[O-])c1 | > 26 µM (inactive)
COc1ccc(-c2ccc3c(c2)S(=O)(=O)c2cccc(C(=O)NCCOc4ccccc4Cl)c2C3=O)cc1OC | > 26 µM (inactive)
NC(=NCCCCCCN=C(N)/N=C(\N)Nc1ccc(Cl)cc1)/N=C(\N)Nc1ccc(Cl)cc1 | > 26 µM (inactive)
C(=N\Nc1nncc2ccccc12)/c1ccccn1 | > 26 µM (inactive)
Cn1c(=O)[nH]c(=O)c2c1nc([N+](=O)[O-])n2Cc1ccccc1 | > 26 µM (inactive)
COc1ccc(C(=O)NC(=S)NNC(=O)c2cnccn2)cc1 | > 26 µM (inactive)

Structure (SMILES) | AC50
c1ccc(C(c2ccccc2)N2CCN(c3nc4ccccc4n4cnnc34)CC2)cc1 | > 26 µM (inactive)
CCCCNc1c(-c2ccc(-c3cccc(Cl)c3)cc2)nc2ccccn12 | > 26 µM (inactive)
Cc1ccc(NS(=O)(=O)c2ccc(NC(=O)CN(c3cc([N+](=O)[O-])ccc3C)S(C)(=O)=O)cc2)c(C)c1 | > 26 µM (inactive)
CCN(CC)c1ccc(/C=N/NC(=O)c2cccc(S(=O)(=O)N3CCOCC3)c2)c(O)c1 | > 26 µM (inactive)
CCCNC(=O)c1c(N)n(-c2cccc(OC)c2)c2nc3ccccc3nc12 | > 26 µM (inactive)
CC(C)(C)c1cc[n+](C2=C([O-])c3ccccc3C(=O)/C2=N\S(=O)(=O)c2cccs2)cc1 | > 26 µM (inactive)
Cc1c(/C=N/Nc2nc3ccccc3[nH]2)c2ccccc2n1C | > 26 µM (inactive)
CCn1c(-c2ccc(C)cc2)nn(CC(=O)NCCc2ccccc2)c1=S | > 26 µM (inactive)
COc1cc(/C=N/N=C(N)N)ccc1OCc1ccc(Cl)cc1 | > 26 µM (inactive)
O=C(NC1CCCC1)c1cc(COc2ccc3ncccc3c2)on1 | > 26 µM (inactive)
O=C(Nc1ccc(F)cc1F)N1CCCN(CCOc2ccccc2)CC1 | > 26 µM (inactive)
CC(C)(C)c1ccc(C(O)CCCN2CCC(C(O)(c3ccccc3)c3ccccc3)CC2)cc1 (centres undefined) | > 26 µM (inactive)
C/C(=N\NC(=O)c1ccc(NS(=O)(=O)c2cccs2)cc1)c1ccccn1 | > 12 µM (inactive)
C=CCN1C(=O)N/C(=C/c2ccc(N3CCOCC3)o2)C1=O | > 12 µM (inactive)
CCc1c(C2(O)CCCCC2)[nH]c2cc(C(F)(F)F)ccc12 | > 26 µM (inactive)
CC1CC(=O)c2c(cc3c(-c4c(O)cc(O)c5c(O)c6c(cc45)OC(C)CC6=O)c(O)cc(O)c3c2O)O1 (centres undefined) | > 26 µM (inactive)
CCN(CC)CCC(=O)Nc1cccc2c1C(=O)c1ccccc1C2=O | 2.26 µM
COc1ccc(N(C(=O)CCl)C(C(=O)NCCc2ccccc2)c2cccs2)cc1Cl (centres undefined) | > 26 µM (inactive)
N#C/C(=C\c1ccc([N+](=O)[O-])o1)c1nc2ccccc2[nH]1 | > 26 µM (inactive)
O=S(=O)(c1cc(F)ccc1F)N1CCN(c2ncnc3ccccc23)CC1 | > 26 µM (inactive)
O=C(N/N=C/c1cc(Cl)ccc1O)c1ccc(Br)cc1 | > 26 µM (inactive)
O=C(N/N=C(\c1ccccc1)c1cccnc1)c1cccc(F)c1 | > 26 µM (inactive)
